From PMC12224983, “Isoquercitrin Alleviates Diabetic Nephropathy by Inhibiting STAT3 Phosphorylation and Dimerization” (Advanced Science, 2025)

Molecular target: T1, signal transducer and activator of transcription 3 (STAT3) (Homo sapiens, UniProt P40763)
T1 construct: Wild-type STAT3 proteins
Test: SPR (BIAcore T200, STAT3 immobilized on CM5 chip); supported by pull-down, proteome microarray and CETSA
Format: binding

T1 sequence (P40763 2-770): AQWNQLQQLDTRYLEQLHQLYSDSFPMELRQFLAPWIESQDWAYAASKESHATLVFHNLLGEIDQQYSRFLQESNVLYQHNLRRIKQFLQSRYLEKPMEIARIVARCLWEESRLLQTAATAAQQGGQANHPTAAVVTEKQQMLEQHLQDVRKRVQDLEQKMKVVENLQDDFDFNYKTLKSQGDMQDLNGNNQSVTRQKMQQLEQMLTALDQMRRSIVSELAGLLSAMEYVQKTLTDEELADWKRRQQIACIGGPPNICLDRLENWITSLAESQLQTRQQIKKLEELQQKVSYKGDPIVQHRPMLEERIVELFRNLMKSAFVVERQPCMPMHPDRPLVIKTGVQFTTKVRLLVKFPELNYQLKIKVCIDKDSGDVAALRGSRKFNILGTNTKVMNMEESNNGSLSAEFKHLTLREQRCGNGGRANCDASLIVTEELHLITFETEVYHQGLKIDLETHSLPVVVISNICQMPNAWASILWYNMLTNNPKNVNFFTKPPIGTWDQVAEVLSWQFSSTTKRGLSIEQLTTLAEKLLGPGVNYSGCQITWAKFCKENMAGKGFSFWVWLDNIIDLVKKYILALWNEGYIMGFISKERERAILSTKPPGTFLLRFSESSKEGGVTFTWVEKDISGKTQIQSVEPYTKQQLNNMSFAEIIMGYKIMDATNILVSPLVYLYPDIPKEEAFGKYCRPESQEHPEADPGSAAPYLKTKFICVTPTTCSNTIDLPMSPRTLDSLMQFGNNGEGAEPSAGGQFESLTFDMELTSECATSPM

`O=c1c(O[C@@H]2O[C@H](CO)[C@@H](O)[C@H](O)[C@H]2O)c(-c2ccc(O)c(O)c2)oc2cc(O)cc(O)c12` [Isoquercitrin] was tested, and the Kd was 2860 nM.
